Measured values reported in US20040127492A1 (Pharmacia Corporation, priority 2002, published 2004).
Read-outs that look alike come from different tables or passages of the source.

Columns and labels:
MK-3 = MK-3 (Homo sapiens, UniProt Q16644); assay: MK-3 inhibition IC50 (similar method to MK-2, with appropriate modifications); assay type: biochemical
Protocol: In practice, the selectivity of a cyclic pyrazole MK-2 inhibitor varies depending upon the condition under which the test is performed and on the inhibitors being tested. However, for the purposes of this specification, the selectivity of a cyclic pyrazole MK-2 inhibitor inhibitor can be measured as a ratio of the in vitro or in vivo IC50 value for inhibition of MK-3, divided by the IC50 value for inhibition of MK-2 (IC50 MK-3/IC50 MK-2). […] The MK-2 or MK-3 inhibiting activity of any of the compounds described herein can be determined by any one of several methods that are well known to those having skill in the art of enzyme activity testing. […] A similar method, with appropriate modifications, Can be used to measure MK-3 inhibitory activity. In addition, the efficacy of one of the present MK-2 inhibiting compounds in therapeutic applications can be determined by testing for inhibition of TNFα production in cell culture and in animal model assays.

MAPKAPK2 (MK-2) = MAPKAPK2 (MK-2) (Homo sapiens, UniProt P49137); assay: Determination of MK-2 IC50 (HSP-peptide phosphorylation, anion exchange resin capture assay); assay type: biochemical
Summary of the method: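 MAPKAPK2, preactivated by p38α with 0.25 mM ATP for 1 h at 30° C, used at 15 nM to phosphorylate HSP-peptide with 0.03 mM ATP plus [γ33P]ATP, pH 7.5, 2% DMSO, 30 min at 30° C. Labelled peptide counted after anion-exchange resin capture; IC50 from six ten-fold dilutions, triplicate.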

[1] = Table 2, pyrazolylpyrazole MK-2 inhibitors, read-out: MK-3 Avg. IC50
[2] = Table 2, pyrazolylpyrazole MK-2 inhibitors, read-out: MK-2 Avg. IC50
[3] = Table 1, phenoxypyrazole MK-2 inhibitors, read-out: MK-3 Avg. IC50
[4] = Table 1, phenoxypyrazole MK-2 inhibitors, read-out: MK-2 Avg, IC50
[5] = Table 5, other cyclic pyrazole MK-2 inhibiting compounds, read-out: MK-3 Avg. IC50
[6] = Table 5, other cyclic pyrazole MK-2 inhibiting compounds, read-out: MK-2 Avg. IC50

MK-3, sequence (Q16644 whole entry, species assumed): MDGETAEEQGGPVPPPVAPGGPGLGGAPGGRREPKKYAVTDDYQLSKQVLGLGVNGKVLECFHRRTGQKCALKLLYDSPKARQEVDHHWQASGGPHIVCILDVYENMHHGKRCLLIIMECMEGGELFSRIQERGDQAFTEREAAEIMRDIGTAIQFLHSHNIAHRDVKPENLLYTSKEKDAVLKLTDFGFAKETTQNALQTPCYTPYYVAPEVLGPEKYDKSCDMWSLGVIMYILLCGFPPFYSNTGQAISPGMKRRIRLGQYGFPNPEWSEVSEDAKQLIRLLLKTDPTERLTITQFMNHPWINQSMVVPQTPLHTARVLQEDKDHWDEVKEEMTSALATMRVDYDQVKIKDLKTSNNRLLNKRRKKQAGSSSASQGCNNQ
MAPKAPK2 (MK-2), sequence (P49137 whole entry, species assumed): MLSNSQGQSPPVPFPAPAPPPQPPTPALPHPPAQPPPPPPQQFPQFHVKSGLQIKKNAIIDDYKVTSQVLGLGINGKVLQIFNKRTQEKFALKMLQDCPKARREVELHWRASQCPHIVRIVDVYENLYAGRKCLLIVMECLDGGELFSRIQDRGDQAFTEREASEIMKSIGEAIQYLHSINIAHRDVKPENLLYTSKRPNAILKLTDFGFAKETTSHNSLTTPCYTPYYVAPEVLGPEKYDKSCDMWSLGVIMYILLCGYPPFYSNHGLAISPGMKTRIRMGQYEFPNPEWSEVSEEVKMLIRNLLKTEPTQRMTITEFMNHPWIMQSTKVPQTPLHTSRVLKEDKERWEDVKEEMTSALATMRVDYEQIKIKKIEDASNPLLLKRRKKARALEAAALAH

IC50 (MK-3; read-out: MK-3 Avg. IC50) [µM]	IC50 (MAPKAPK2 (MK-2); read-out: MK-2 Avg. IC50) [µM]	IC50 (MK-3; [1]) [µM]	IC50 (MAPKAPK2 (MK-2); [2]) [µM]	IC50 (MK-3; [3]) [µM]	IC50 (MAPKAPK2 (MK-2); [4]) [µM]	further results	Compound
22.5	0.574						Cc1ccc(C(C)CCNCCCn2nc3c(c2C(=O)O)CCc2cnccc2-3)o1 (stereo not drawn) [Example 59]
		≥ 200	72.2				NC(=O)c1nn(CCO)c2c1CCc1[nH]ncc1-2 [Example 23]
34.3	0.479						O=C(O)c1c2c(nn1CCCNCCCc1ccc(Cl)cc1)-c1ccncc1CC2 [Example 52]
				> 200	> 200		COc1cc2c(cc1OC)-c1n[nH]c(C(=O)NN)c1CC2 [Example 170]
				> 200	148		CC1Cc2cc(O)ccc2-c2n[nH]c(C(=O)O)c21 (stereo not drawn) [Example 59]
		≥ 200	10.1				NCCCCn1nc2c(c1C(=O)O)CCc1[nH]ncc1-2 [Example 10]
				> 200	3		O=C1NCCn2nc3c(c21)CCc1cc(O)c(-c2cccc([N+](=O)[O-])c2)cc1-3 [Example 7]
26.1	0.622						CS(=O)(=O)c1ccc(CCCNCCCn2nc3c(c2C(=O)O)CCc2cnccc2-3)cc1 [Example 65]
0.29	0.0433						NCCCn1nc2c(c1C(=O)O)CCc1cnc(-c3cccc(C(F)(F)F)c3)cc1-2 [Example 12]
0.875	0.0558						COc1cccc(-c2cc3c(cn2)CCc2c-3nn(CCCN)c2C(=O)O)c1 [Example 14]
108	96.8						CN1CCN(c2cc3c(cn2)CCc2c-3nn3c2C(=O)NCC3)CC1 [Example 245]
		≥ 200	≥ 200				NC(=O)c1[nH]nc2c1CCc1c-2cnn1COCc1ccccc1 [Example 68]
				169	136		Cc1noc(C)c1-c1cc2c(cc1O)CCc1c-2nn(CCCN)c1C(=O)O [Example 55]
		55.6	10.8				C=CCSc1n[nH]c2c1-c1nn3c(c1CC2)C(=O)NCCC3 [Example 12]
				> 200	65.7		COc1cc2c(cc1-c1ccc(C(C)(C)C)cc1)-c1nn(CCCNC(=O)OC(C)(C)C)c(C(=O)O)c1CC2 [Example 42]
0.135	0.028						NCCCn1nc2c(c1C(=O)O)CCc1cnc(-c3cc(F)cc(F)c3)cc1-2 [Example 6]
		≥ 200	≥ 200				CCOC(=O)c1c2c(nn1CC(F)(F)F)-c1cn[nH]c1CC2 [Example 72]
4.51	0.374						O=C(O)c1c2c(nn1CCCNS(=O)(=O)Cc1ccccc1)-c1cc(-c3cnc4ccccc4c3)ncc1CC2 [Example 48]
		≥ 200	≥ 200				O=C(O)c1nn(-c2ccccc2)c2c1CCc1[nH]ncc1-2 [Example 71]
				> 200	> 200		COC(=O)c1c2c(nn1CCCNC(=O)OC(C)(C)C)-c1cc(Br)c(OC)cc1CC2 [Example 184]
						IC50 (MK-3; Table 4, pyrimidylpyrazole MK-2 inhibitors, read-out: NK-3 Avg. IC50): 4.61 µM; IC50 (MAPKAPK2 (MK-2); Table 4, pyrimidylpyrazole MK-2 inhibitors, read-out: MK-2 Avg. IC50): 0.295 µM	NCCCn1nc2c(c1C(=O)O)CCc1cnc(-c3ccc4c(c3)OCO4)nc1-2 [Example 2]

IC50 (MK-3; read-out: MK-3 Avg. IC50) [µM]	IC50 (MAPKAPK2 (MK-2); read-out: MK-2 Avg. IC50) [µM]	IC50 (MK-3; [1]) [µM]	IC50 (MAPKAPK2 (MK-2); [2]) [µM]	IC50 (MK-3; [3]) [µM]	IC50 (MAPKAPK2 (MK-2); [4]) [µM]	further results	Compound
		≥ 200	139				CC(C)(C)OC(=O)NCCn1nc2c(c1C(=O)O)CCc1c-2cnn1C(c1ccccc1)(c1ccccc1)c1ccccc1 [Example 38]
16.1	0.245						CC(C)c1cccc(-c2ccc(CCNCCCn3nc4c(c3C(=O)O)CCc3cnccc3-4)cc2)c1 [Example 40]
34.8	0.931						CCOc1ccc(CCNCCCn2nc3c(c2C(=O)O)CCc2cnccc2-3)cc1 [Example 74]
				> 200	> 200		COc1ccc2c(c1)CCc1c(C(=O)O)nn(-c3ccc(Cl)cc3)c1-2 [Example 160]
				> 200	> 200		CCOC(=O)c1nn(-c2ccccc2)c2c1CCc1cc(OC)c(OC)cc1-2 [Example 168]
174	3.01						NCCCCn1nc2c(c1C(=O)O)CCc1cnccc1-2 [Example 113]
35	0.825						O=C1NC(CO)Cn2nc3c(c21)CCc1cnccc1-3 (stereo not drawn) [Example 71]
				> 200	> 200		COC(=O)c1[nH]nc2c1CCc1cc(OC)c(Br)cc1-2 [Example 183]
		20.8	2.23				O=C(O)c1c2c(nn1CCCNCCc1ccc(Br)cc1)-c1cn[nH]c1CC2 [Example 3]
				> 200	47.3		NCCCn1nc2c(c1C(=O)O)CCc1cc(O)c(-c3cccc(C(=O)O)c3)cc1-2 [Example 36]
				> 200	158		Cn1nc(C(N)=O)c2c1-c1ccc(O)cc1CC2 [Example 65]
		≥ 200	≥ 200				NC(=O)c1[nH]nc2c1CCc1c-2cnn1CCO [Example 70]
				> 200	> 200		COc1ccc2c(c1)CCc1c-2n[nH]c1C(=O)NN [Example 180]
		≥ 200	≥ 200				Cn1ncc2c1CCc1c-2n[nH]c1C(N)=O [Example 49]
		≥ 200	≥ 200				CC(C)(C)OC(=O)NCCCn1nc2c(c1C(N)=O)CCc1[nH]ncc1-2 [Example 66]
		≥ 200	≥ 200				O=C(O)CCn1nc(C(=O)O)c2c1-c1cn[nH]c1CC2 [Example 100]
		≥ 200	≥ 200				CCOC(=O)c1nn(CC(F)(F)F)c2c1CCc1c-2cnn1C(c1ccccc1)(c1ccccc1)c1ccccc1 [Example 73]
						IC50 (MK-3; [5]): 11.8 µM; IC50 (MAPKAPK2 (MK-2); [6]): 0.328 µM	COc1cccc(/C=C/c2cc3c(cn2)CCc2c-3nn3c2C(=O)NCC3)c1 [Example 5]
						IC50 (MK-3; [5]): 3.62 µM; IC50 (MAPKAPK2 (MK-2); [6]): 0.0211 µM	O=C1NCCn2nc3c(c21)CCc1cnc(/C=C/c2cccc(O)c2)cc1-3 [Example 1]
		≥ 200	≥ 200				NC(=O)c1nn(-c2ccccc2)c2c1CCc1c-2cnn1Cc1ccccc1 [Example 53]
				121	10.5		NCCCn1nc2c(c1C(=O)O)CCc1cc(O)c(-c3cccc(Cl)c3)cc1-2 [Example 13]

IC50 (MK-3; read-out: MK-3 Avg. IC50) [µM]	IC50 (MAPKAPK2 (MK-2); read-out: MK-2 Avg. IC50) [µM]	IC50 (MK-3; [1]) [µM]	IC50 (MAPKAPK2 (MK-2); [2]) [µM]	IC50 (MK-3; [3]) [µM]	IC50 (MAPKAPK2 (MK-2); [4]) [µM]	further results	Compound
5.01	0.316						O=C(O)c1c2c(nn1CCCNCCc1ccc(-c3ccccc3)cc1)-c1ccncc1CC2 [Example 44]
		≥ 200	≥ 200				CCOC(=O)c1c2c(nn1CCNC(=O)OC(C)(C)C)-c1cnn(C(c3ccccc3)(c3ccccc3)c3ccccc3)c1CC2 [Example 59]
				> 200	2.14		NCCn1nc2c(c1C(=O)O)CCc1cc(O)c(Br)cc1-2 [Example 5]
				> 200	148		C=CCC1Cc2c(C(=O)O)n[nH]c2-c2ccc(O)cc21 (stereo not drawn) [Example 60]
		144	19.6				O=C1NCCCn2nc3c(c21)CCc1[nH]ncc1-3 [Example 13]
		186	116				CCOC(=O)c1c2c(nn1CCCN)-c1cn[nH]c1CC2 [Example 33]
				109	11		NCCCn1nc2c(c1C(=O)O)CCc1cc(O)c(-c3ccc(Cl)cc3)cc1-2 [Example 15]
7.71	0.211						O=C(O)c1c2c(nn1CCCNCCc1ccc(-c3ccncc3)cc1)-c1ccncc1CC2 [Example 37]
0.269	0.0296						NCCCn1nc2c(c1C(=O)O)CCc1cnc(-c3ccc4c(c3)OCO4)cc1-2 [Example 7]
				> 200	176		CCOC(=O)c1[nH]nc2c1CCc1cc(O)ccc1-2 [Example 70]
		195	68.3				O=C(O)c1nn(CC(F)(F)F)c2c1CCc1c-2cnn1C(c1ccccc1)(c1ccccc1)c1ccccc1 [Example 22]
40.4	16.1						O=C1NCC(CCCNCCc2ccc(Cl)cc2)n2nc3c(c21)CCc1cnccc1-3 (stereo not drawn) [Example 178]
17.2	0.89						Cc1ccc(CCNCCCn2nc3c(c2C(=O)O)CCc2cnccc2-3)cc1 [Example 72]
				> 200	> 200		COc1ccc2c(c1)CCc1c(C(=O)O)nn(-c3ccc(S(N)(=O)=O)cc3)c1-2 [Example 166]
		≥ 200	114				C=CCSc1n[nH]c2c1-c1nn(CCCN)c(C(=O)OCC)c1CC2 [Example 31]
7.22	0.201						CC(C)(C)c1ccc(-c2ccc(CCNCCCn3nc4c(c3C(=O)O)CCc3cnccc3-4)cc2)cc1 [Example 33]
				> 200	> 200		COC(=O)c1c2c(nn1CCNC(=O)OC(C)(C)C)-c1cc(Br)c(OC)cc1CC2 [Example 185]
				> 200	17.7		CNc1ccc(-c2cc3c(cc2O)CCc2c-3nn(CCCN)c2C(=O)O)cc1 [Example 21]
				> 200	184		O=C(NCCO)c1[nH]nc2c1CCc1cc(O)ccc1-2 [Example 73]
		≥ 200	≥ 200				NC(=O)c1[nH]nc2c1CCc1c-2cnn1-c1ccccc1 [Example 51]
4.67	0.162						NCCCn1nc2c(c1C(=O)NO)CCc1cnc(-c3cnc4ccccc4c3)cc1-2 [Example 28]
